Source: the supplement of paper PMC10307832

Assays:
Test in all cases: relative viability (nuclei count vs DMSO), 5 days (fraction); higher = more cells survive
[1] = compound: CC1=C(C(=O)N2C=CSC2=N1)CCN3CCC(=C(C4=CC=CC=C4)C5=CC=C(C=C5)F)CC3 + N=C(N)NC(=N)NCCc1ccccc1 [Phenformin] (partner 250 µM)
In short: (§1)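 Medians of duplicate plates are given as relative viability. That measure is the nuclei count in treated wells divided by the count in vehicle wells. Counts were taken on 4× images of lung cancer cell lines in 1536-well plates, 5 days after pin-tool dosing the day after seeding with one drug alone or a fixed anchor-drug dose plus five library-drug doses (not always all listed) in √10 steps.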

[2] = compound: CC1=C(C(=O)N2C=CSC2=N1)CCN3CCC(=C(C4=CC=CC=C4)C5=CC=C(C=C5)F)CC3 + CS(=O)(=O)CCNCc1ccc(-c2ccc3ncnc(Nc4ccc(OCc5cccc(F)c5)c(Cl)c4)c3c2)o1 [Lapatinib] (partner 2 µM)
In short: as §1

[3] = compound: CC1=C(C(=O)N2C=CSC2=N1)CCN3CCC(=C(C4=CC=CC=C4)C5=CC=C(C=C5)F)CC3 + O=C(c1cc(Cc2n[nH]c(=O)c3ccccc23)ccc1F)N1CCN(C(=O)C2CC2)CC1 [Olaparib] (partner 8 µM)
In short: as §1

[4] = compound: CC1=C(C(=O)N2C=CSC2=N1)CCN3CCC(=C(C4=CC=CC=C4)C5=CC=C(C=C5)F)CC3 + CC(=O)Nc1cccc(-n2c(=O)n(C3CC3)c(=O)c3c(Nc4ccc(I)cc4F)n(C)c(=O)c(C)c32)c1 [Trametinib] (partner 0.02 µM)
In short: as §1

| Cell Line | relative viability ([1]; first compound 0.08 µM) | relative viability ([1]; first compound 0.253 µM) | relative viability ([1]; first compound 0.8 µM) | relative viability ([1]; first compound 2.53 µM) | relative viability ([1]; first compound 8 µM) | relative viability ([2]; first compound 0.08 µM) | relative viability ([2]; first compound 0.253 µM) | relative viability ([2]; first compound 0.8 µM) | relative viability ([2]; first compound 2.53 µM) | relative viability ([2]; first compound 8 µM) | relative viability ([3]; first compound 0.08 µM) | relative viability ([3]; first compound 0.253 µM) | relative viability ([3]; first compound 0.8 µM) | relative viability ([3]; first compound 2.53 µM) | relative viability ([3]; first compound 8 µM) | relative viability ([4]; first compound 0.08 µM) | relative viability ([4]; first compound 0.253 µM) | relative viability ([4]; first compound 0.8 µM) | relative viability ([4]; first compound 2.53 µM) | relative viability ([4]; first compound 8 µM) |
| --- | --- | --- | --- | --- | --- | --- | --- | --- | --- | --- | --- | --- | --- | --- | --- | --- | --- | --- | --- | --- |
| NCI-H1734 | 0.419 | 0.378 | 0.371 | 0.405 | 0.322 | 1.08 | 0.866 | 0.984 | 1.33 | 0.71 | 0.554 | 0.526 | 0.624 | 0.767 | 0.396 | 0.741 | 0.598 | 0.691 | 0.688 | 0.512 |
| NCI-H322M | 0.745 | 0.785 | 0.737 | 0.773 | 0.873 | 0.581 | 0.613 | 0.612 | 0.554 | 0.611 | 0.74 | 0.801 | 0.678 | 0.813 | 0.738 | 0.478 | 0.424 | 0.558 | 0.604 | 0.469 |
| NCI-H1650 | 0.494 | 0.345 | 0.383 | 0.58 | 0.314 | 0.685 | 0.891 | 0.709 | 0.925 | 0.579 | 0.782 | 0.838 | 0.862 | 0.819 | 0.605 | 0.513 | 0.532 | 0.483 | 0.722 | 0.412 |
| PC-14 | 0.624 | 0.558 | 0.518 | 0.661 | 0.296 | 0.296 | 0.335 | 0.301 | 0.352 | 0.295 | 0.209 | 0.223 | 0.27 | 0.251 | 0.253 | 0.523 | 0.984 | 0.927 | 1.61 | 0.476 |
| NCI-H1395 | 0.511 | 0.432 | 0.435 | 0.453 | 0.432 | 1.11 | 0.97 | 0.908 | 1 | 0.821 | 0.424 | 0.43 | 0.443 | 0.406 | 0.434 | 1.05 | 0.97 | 0.992 | 1 | 0.872 |
| NCI-H2170 | 0.42 | 0.42 | 0.37 | 0.417 | 0.39 | 0.274 | 0.268 | 0.276 | 0.278 | 0.274 | 0.674 | 0.538 | 0.635 | 0.717 | 0.394 | 1.21 | 0.894 | 0.964 | 0.792 | 0.637 |
| NCI-H2228 | 0.261 | 0.301 | 0.376 | 0.348 | 0.256 | 1.04 | 0.974 | 1.14 | 0.99 | 0.635 | 0.591 | 0.701 | 0.723 | 0.728 | 0.347 | 0.481 | 0.417 | 0.612 | 0.506 | 0.332 |
